Measured values taken from PubChem BioAssay AID405 (SGCOxCompounds, 2006).

What follows are molecules tested against Receptor-type tyrosine-protein phosphatase R (Homo sapiens) (UniProt Q15256) (assay: PTPRR phosphatase inhibition, biochemical, recombinant human enzyme, DiFMUP fluorescence (AID 405)). Details: DiFMUP fluorescence phosphatase assay.
Sequence of Receptor-type tyrosine-protein phosphatase R (Homo sapiens) (Q15256 whole entry, looked up): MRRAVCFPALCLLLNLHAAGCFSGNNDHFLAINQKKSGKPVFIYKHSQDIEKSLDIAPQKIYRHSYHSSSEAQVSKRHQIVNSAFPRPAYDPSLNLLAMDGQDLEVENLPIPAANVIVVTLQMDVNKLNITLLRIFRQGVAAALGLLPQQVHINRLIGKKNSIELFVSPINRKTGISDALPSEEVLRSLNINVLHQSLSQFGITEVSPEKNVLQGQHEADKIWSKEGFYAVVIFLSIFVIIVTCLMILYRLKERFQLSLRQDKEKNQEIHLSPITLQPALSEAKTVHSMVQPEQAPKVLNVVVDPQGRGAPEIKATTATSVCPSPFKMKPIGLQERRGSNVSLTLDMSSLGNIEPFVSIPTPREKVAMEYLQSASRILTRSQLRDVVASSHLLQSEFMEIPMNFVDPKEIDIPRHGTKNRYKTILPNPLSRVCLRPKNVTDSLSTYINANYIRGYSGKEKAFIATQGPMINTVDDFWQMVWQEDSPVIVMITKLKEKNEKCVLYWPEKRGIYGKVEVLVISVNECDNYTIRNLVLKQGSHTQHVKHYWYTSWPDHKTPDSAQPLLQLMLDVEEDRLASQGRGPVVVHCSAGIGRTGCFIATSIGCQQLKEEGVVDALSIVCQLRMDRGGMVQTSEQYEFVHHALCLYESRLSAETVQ

With `COc1ccc(-c2nc3cc(N=Cc4cc(C(=O)O)ccc4O)ccc3o2)cc1` as the molecule, how does the IC50 read?
The IC50 was 15.9 µM.

`Cc1ccc(C)n1-c1ccc(C(=O)O)cc1O` was tested. Which IC50 did it give?
Its IC50 is 13.7 µM.

For `Cc1ccc2nc(-c3cc(N=Cc4cc(C(=O)O)ccc4O)ccc3O)[nH]c2c1`, which IC50 is on record?
The IC50 was 25.6 µM.

How did the IC50 turn out when `Cc1ccc(C)n1-c1cc(C(=O)O)ccc1O` was run?
Its IC50 is 3.9 µM.

How did the IC50 turn out when `O=C(O)c1ccc(O)c(C=Nc2ccc3oc(-c4ccc(F)cc4Cl)nc3c2)c1` was run?
The IC50 was 7.3 µM.

For `NC1=NC(=O)/C(=C/C=C/c2ccc([N+](=O)[O-])o2)S1`, which IC50 is on record?
The IC50 was 2.3 µM.

How did the IC50 turn out when `CC(=O)c1ccc2c(c1)C1C=CCC1C(C(=O)O)N2` (configuration not stated) was run?
The IC50 was 6.7 µM.

Same assay, conditions: DiFMUP fluorescence phosphatase assay, at 50 µM, hits give high values

With `O=C(O)c1ccc([O-])cn1.OO.OO.[K+].[K+].[O]=[V]` as the molecule, how does the inhibition read?
The inhibition was 98%.

With `CCn1nc(/C=C/c2ccccc2)[n+](=O)c2c(=O)n(C)c(=O)[nH]c21` as the molecule, how does the inhibition read?
The inhibition was 63%.

For `COc1ccc(OC)c(N=Cc2cc(C(=O)O)ccc2O)c1`, which inhibition is on record?
The inhibition was 69%.

Which inhibition does the source give for `CCn1nc(-c2ccc(Cl)cc2)nc2c(=O)n(C)c(=O)nc1-2` here?
The inhibition was 64%.

With `O=C(O)c1ccc(O)c(C=Nc2ccc3oc(-c4cccc(Cl)c4)nc3c2)c1` as the molecule, how does the inhibition read?
The inhibition was 83%.

Which inhibition does the source give for `O=C1NC(=S)NC(=O)C1=C/C=C/c1ccco1` here?
The inhibition was 100%.

With `O=C(O)c1ccc(O)c(N2C(=O)Nc3ccccc3N2O)c1` as the molecule, how does the inhibition read?
The inhibition was 76%.

With `O=C(O)c1ccc(O)c(C=Nc2cccc(-c3nc4ccccc4o3)c2)c1` as the molecule, how does the inhibition read?
Its inhibition is 58%.

Which inhibition does the source give for `O=C(O)c1ccc(O)c(C=Nc2ccc3oc(-c4ccccc4)nc3c2)c1` here?
The inhibition was 66%.

Which inhibition does the source give for `OO.OO.[K+].[O]=[V].c1ccc(-c2ccccn2)nc1` here?
Its inhibition is 98%.

`CN(N=O)c1ccc(O)c(O)c1` was tested. Which inhibition did it give?
Its inhibition is 33%.

`O=C(O)c1ccc(O)c(/C=N/N(CCO)C2=NS(=O)(=O)c3ccccc32)c1` was tested. Which inhibition did it give?
Its inhibition is 66%.

For `O=C(O)c1ccc(O)c(C=Nc2ccc3oc(-c4cccc(Cl)c4Cl)nc3c2)c1`, which inhibition is on record?
The inhibition was 66%.

How did the inhibition turn out when `O=C([O-])c1ccccn1.OO.OO.[K+].[K+].[O]=[V]` was run?
Its inhibition is 98%.

`O=C(O)c1ccc(O)cn1.OO.[O]=[V]` was tested. Which inhibition did it give?
The inhibition was 95%.

With `O=C1NC(=S)S/C1=C\C=C\c1ccc([N+](=O)[O-])o1` as the molecule, how does the inhibition read?
The inhibition was 100%.

For `Cc1ccc2oc(-c3cccc(N=Cc4cc(C(=O)O)ccc4O)c3)nc2c1`, which inhibition is on record?
The inhibition was 51%.

`O=C(O)c1ccc(O)c(C=Nc2ccc3oc(-c4cc(Cl)ccc4Cl)nc3c2)c1` was tested. Which inhibition did it give?
The inhibition was 81%.

`Cn1nc(/C=C/c2ccccc2)nc2c(=O)n(C)c(=O)nc1-2` was tested. Which inhibition did it give?
The inhibition was 77%.

With `CC(C)(c1ccc(NS(=O)(=O)C(F)(F)F)cc1)c1ccc(C(C)(C)c2ccc(NS(=O)(=O)C(F)(F)F)cc2)cc1` as the molecule, how does the inhibition read?
The inhibition was 91%.
